Tested on: Plasmodium berghei
Assay: Luciferase/luciferin-expressing antifolate-resistant parasites were used to infect a culture of HepG2 cells that were pre-incubated with compounds. Infected hepatocytes emit light due to the luciferase reaction. Assay results are presented as the percent inhibition of light emission compared to control. […]
Assay type: functional
Details: sporozoite; for IC90: read-out: LUCIFERASE INFECTION ASSAY - IC90
[1] = read-out: LUCIFERASE INFECTION ASSAY - IC50

SMILES | IC90 [µM] | other results
O=C(Nc1ccc2nc(Cc3ccccc3)nn2c1)Nc1cccs1 | > 3.33 | IC50 (PBLUC_HILL_SLOPE 0.558, PBLUC_R_SQUARED 0.579, read-out: LUCIFERASE INFECTION ASSAY - IC50): 0.969 µM
COc1ccc(-c2cc(-c3ccc(O)cc3)cnc2N)cn1 | 10.6 | IC50 (PBLUC_HILL_SLOPE 26.5, PBLUC_R_SQUARED 0.457, read-out: LUCIFERASE INFECTION ASSAY - IC50): 9.73 µM
Cc1ccccc1-c1cccc(CN2CCC3(CC2)C(=O)N(CCCc2ccncc2)C(=O)N3C)c1 | 2.53 | IC50 (HEPG2TOX_HILL_SLOPE 0.98, HEPG2TOX_R_SQUARED 0.922, PBLUC_HILL_SLOPE 14, PBLUC_R_SQUARED 0.565, read-out: LUCIFERASE INFECTION ASSAY - IC50): 2.16 µM
Cc1nn(-c2ccc(C(=O)N(Cc3ccccc3)Cc3nc(=O)c4ccccc4[nH]3)cc2)c(C)c1Cl | 3.52 | IC50 (PBLUC_HILL_SLOPE 3.8, PBLUC_R_SQUARED 0.516, read-out: LUCIFERASE INFECTION ASSAY - IC50): 1.98 µM
COc1ccc(CNCCC(c2ccc(F)cc2)c2ccco2)cc1 (stereo unspecified) | 1.22 | IC50 (HEPG2TOX_HILL_SLOPE 73.6, HEPG2TOX_R_SQUARED 0.521, PBLUC_HILL_SLOPE 15.7, PBLUC_R_SQUARED 0.627, read-out: LUCIFERASE INFECTION ASSAY - IC50): 1.06 µM
CCN(c1ccc(NC(=S)Nc2cccc3ccccc23)cc1)C(C)C | > 10 | IC50 (HEPG2TOX_HILL_SLOPE 1.56, HEPG2TOX_R_SQUARED 0.289, PBLUC_HILL_SLOPE 3.28, PBLUC_R_SQUARED 0.342, read-out: LUCIFERASE INFECTION ASSAY - IC50): 5.97 µM
Cc1ccnc(NC(c2cccc(C)n2)c2ccc3cccnc3c2O)c1 (stereo unspecified) | > 9.26 | IC50 (FFLUC_HILL_SLOPE 20.2, FFLUC_R_SQUARED 0.523, HEPG2TOX_HILL_SLOPE 12.4, HEPG2TOX_R_SQUARED 0.193, PBLUC_HILL_SLOPE 13.3, PBLUC_R_SQUARED 0.0907, read-out: LUCIFERASE INFECTION ASSAY - IC50): 7.89 µM
Cc1ccc(N2C(=O)N(CC(=O)N3CCc4ccccc43)C(=O)C2C)cc1 (stereo unspecified) | > 2 | IC50 [1]: > 2 µM
FC(F)(F)c1cccc(-c2cc3c(Nc4ccc5c(c4)OCCO5)nccc3[nH]2)c1 | 5.7 | IC50 (HEPG2TOX_HILL_SLOPE 20.2, HEPG2TOX_R_SQUARED 0.64, PBLUC_HILL_SLOPE 4.68, PBLUC_R_SQUARED 0.558, read-out: LUCIFERASE INFECTION ASSAY - IC50): 3.56 µM
Cc1cc(-c2nc(C)sc2CC(=O)O)c(C)s1 | > 10 | IC50 [1]: > 10 µM
Cc1ccc(Oc2ccc(OCC(=O)NCCNc3ccc4ccccc4c3)cc2)cc1 | 6.61 | IC50 (HEPG2TOX_HILL_SLOPE 2.47, HEPG2TOX_R_SQUARED 0.879, PBLUC_HILL_SLOPE 3.02, PBLUC_R_SQUARED 0.699, read-out: LUCIFERASE INFECTION ASSAY - IC50): 3.2 µM
Cc1ccccc1N1CCN(Cc2csc(-c3ccccc3Cl)n2)CC1 | 3.67 | IC50 (HEPG2TOX_HILL_SLOPE 2.7, HEPG2TOX_R_SQUARED 0.815, PBLUC_HILL_SLOPE 21.2, PBLUC_R_SQUARED 0.497, read-out: LUCIFERASE INFECTION ASSAY - IC50): 3.3 µM
COc1ccc(-c2cnc3sc(NCCCO)nn23)cc1OC | 7.9 | IC50 (PBLUC_HILL_SLOPE 3.23, PBLUC_R_SQUARED 0.708, read-out: LUCIFERASE INFECTION ASSAY - IC50): 4 µM
Cc1nn(C)c2nc(-c3ccco3)cc(C(=O)Nc3ccnn3Cc3ccc(Cl)cc3Cl)c12 | > 10 | IC50 (FFLUC_HILL_SLOPE 11.1, FFLUC_R_SQUARED 0.205, read-out: LUCIFERASE INFECTION ASSAY - IC50): > 10 µM
COc1cccc(-c2cn3c(-c4cccc(O)c4)cnc3cn2)c1F | 3.69 | IC50 (PBLUC_HILL_SLOPE 18.9, PBLUC_R_SQUARED 0.523, read-out: LUCIFERASE INFECTION ASSAY - IC50): 3.28 µM
CCN(Cc1ccccc1)S(=O)(=O)c1cc(C(=O)N2CCc3ccccc3C2)ccc1OC | > 10 | IC50 (PBLUC_HILL_SLOPE 15.3, PBLUC_R_SQUARED 0.425, read-out: LUCIFERASE INFECTION ASSAY - IC50): 9.68 µM
CC1Cc2nc(N)nc(N)c2CC1C (stereo unspecified) | > 17.2 | IC50 [1]: > 17.2 µM

SMILES | IC90 [µM] | other results
Cc1nn(-c2ccccc2)c2sc(C(=O)NNc3nc(CN4CCOCC4)nc4scc(-c5ccccc5)c34)cc12 | > 10 | IC50 (HEPG2TOX_HILL_SLOPE 1.59, 8.29, HEPG2TOX_R_SQUARED 0.901, 0.855, PBLUC_HILL_SLOPE 12, PBLUC_R_SQUARED 0.591, read-out: LUCIFERASE INFECTION ASSAY - IC50): 8.46 µM
COc1ccc(Cl)cc1NC(=O)COC(=O)COc1ccc(/C=C2\SC(=S)N(c3cccc(C(F)(F)F)c3)C2=O)cc1OC | > 10 | IC50 (FFLUC_HILL_SLOPE 3.19, FFLUC_R_SQUARED 0.292, read-out: LUCIFERASE INFECTION ASSAY - IC50): > 10 µM
CCN(CC)c1ccc(/C=N/NC(=S)NCC2CCCO2)c(O)c1 (stereo unspecified) | > 10 | IC50 (HEPG2TOX_HILL_SLOPE 16.0, 27.0, HEPG2TOX_R_SQUARED 0.190, 0.836, PBLUC_HILL_SLOPE 15.6, PBLUC_R_SQUARED 0.223, read-out: LUCIFERASE INFECTION ASSAY - IC50): 8.89 µM
COc1cc(NC(=O)N2Cc3cnc(Nc4ccc(Oc5ccccc5)cc4)nc3C2)cc(OC)c1OC | > 6.43 | IC50 (PBLUC_HILL_SLOPE 5.21, PBLUC_R_SQUARED 0.0507, read-out: LUCIFERASE INFECTION ASSAY - IC50): 5.26 µM
Cc1nnnn1/C(=C\c1ccccc1)C(=O)N1CCCC1c1nc2ccccc2s1 (stereo unspecified) | > 10 | IC50 (HEPG2TOX_HILL_SLOPE 10.1, HEPG2TOX_R_SQUARED 0.585, PBLUC_HILL_SLOPE 18.2, PBLUC_R_SQUARED 0.211, read-out: LUCIFERASE INFECTION ASSAY - IC50): 9.46 µM
Cc1c(C)c(C)c2[nH]c(S)nc2c1C | > 16 | IC50 (HEPG2TOX_HILL_SLOPE 6.45, HEPG2TOX_R_SQUARED 0.505, PBLUC_HILL_SLOPE 19.5, PBLUC_R_SQUARED 0.258, read-out: LUCIFERASE INFECTION ASSAY - IC50): 15.4 µM
CCOC(/C=C1\Sc2c(ccc3c2CCCC3)N1CC)=C1/SC(=S)N(CC)C1=O | > 10 | IC50 [1]: > 10 µM
COc1ccc(N(Cc2cn(-c3ccccc3)nc2-c2ccc(Cl)cc2)S(=O)(=O)c2ccccc2)cc1 | > 10 | IC50 (FFLUC_HILL_SLOPE 12.1, FFLUC_R_SQUARED 0.616, PBLUC_HILL_SLOPE 4, PBLUC_R_SQUARED 0.331, read-out: LUCIFERASE INFECTION ASSAY - IC50): 7.59 µM
CC(=O)c1c[nH]c(C(=O)OCC(=O)NCCc2ccc(C(C)C)cc2)c1 | > 2 | IC50 [1]: > 2 µM
Cc1[nH]c2ccccc2c1C(=O)C(C)OC(=O)c1c2c(nc3ccccc13)/C(=C/c1cccc([N+](=O)[O-])c1)CCC2 (stereo unspecified) | > 10 | IC50 (FFLUC_HILL_SLOPE 1.81, FFLUC_R_SQUARED 0.362, PBLUC_HILL_SLOPE 3.43, PBLUC_R_SQUARED 0.216, read-out: LUCIFERASE INFECTION ASSAY - IC50): 6.23 µM
Cc1ccc(NC(=O)c2ccc(S(=O)(=O)N3CCOCC3)o2)cc1Cl | > 10 | IC50 [1]: > 10 µM
COc1ccccc1NC1=C(Cl)C(=O)c2ccccc2C1=O | 8.17 | IC50 (FFLUC_HILL_SLOPE 2.43, FFLUC_R_SQUARED 0.19, HEPG2TOX_HILL_SLOPE 11.1, HEPG2TOX_R_SQUARED 0.994, PBLUC_HILL_SLOPE 1.56, PBLUC_R_SQUARED 0.76, read-out: LUCIFERASE INFECTION ASSAY - IC50): 2 µM
Cc1ccc(S(=O)(=O)Nc2ccc(Nc3nccn4c(-c5ccc(OC(F)(F)F)cc5)cnc34)cc2)cc1 | 3.49 | IC50 (PBLUC_HILL_SLOPE 1.58, PBLUC_R_SQUARED 0.687, read-out: LUCIFERASE INFECTION ASSAY - IC50): 0.867 µM
COc1ccc(C(=O)/C=C/c2cc(Br)c(OCC(=O)N(C)C)c(OC)c2)c(OC)c1 | 4.46 | IC50 (HEPG2TOX_HILL_SLOPE 1.45, HEPG2TOX_R_SQUARED 0.95, PBLUC_HILL_SLOPE 1.66, PBLUC_R_SQUARED 0.857, read-out: LUCIFERASE INFECTION ASSAY - IC50): 1.19 µM
CC(C)c1ccc(NC(=O)[C@@H]2Cc3ccccc3CN2C(=O)OC(C)(C)C)cc1 | > 8.36 | IC50 (PBLUC_HILL_SLOPE 2.17, PBLUC_R_SQUARED 0.544, read-out: LUCIFERASE INFECTION ASSAY - IC50): 3.19 µM
COc1cc(-c2cc3c(cn2)nc(NCc2cccc(C)c2)n3C)cc(OC)c1OC | > 10 | IC50 [1]: 8.23 µM

From ChEMBL document CHEMBL4483862, “Open-source discovery of chemical leads for next-generation chemoprotective antimalarials” (2018)
